Test results taken from patent US20130252951A1, “7-HYDROXY-PYRAZOLO[1,5-A] PYRIMIDINE COMPOUNDS AND THEIR USE AS CCR2 RECEPTOR ANTAGONISTS” (Proximagen Limited, priority 2010, published 2013).

Target: human CCR2 (Homo sapiens, UniProt P41597)
Test: CCR2 functional calcium assay (FLIPR calcium flux, hMCP-1 challenge)
Type: cell-based
Parameters: expressed in transfected cells; host or cells: HEK293 EBNA cells
Details: HEK293 EBNA cells transfected with human CCR2, hMCP-1 challenge; read-out: Functional CCR2 fKi
Text: The CCR2 receptor couples through the Gi/Gq signaling pathway and results in activation of calcium mobilization. The functional activity of test compounds was routinely tested by measuring the ability of compounds to antagonize CCR2 activity in a dose dependent manner, in HEK293 EBNA cells transfected with the human CCR2 receptor (hMCP-1 challenge), using a calcium flux Fluorescent Imaging Plate Reader FLIPR assay. Non-transfected HEK293 EBNA cells were used as control of non-specific response.
Briefly, test compounds were dissolved in dimethyl sulfoxide (DMSO) to a concentration of 10 mM and stored in matrix screenmate racks. The required amount of compound was transferred to 96-well compound plates on the day of assay and diluted in assay buffer to the required final concentration; dose-response measurements were assayed by making 1:3 serial dilutions to produce 10 point curves. The compounds were then transferred to 384-well assay plates ready for use. Top concentrations were adjusted depending on the potency of the compounds with a typical concentration range of 30 μM to 0.5 nM being used. The assay buffer used was HBSS buffer supplemented with 20 mM HEPES and 0.1% BSA, pH7.4. The loading/wash buffers were the same as the assay buffer.
Cells were suspended in culture medium at a density of 10000 cells/50 μl (the cell culture media composition was DMEM high glucose supplemented with 10% dialyzed FBS, 250 μg/ml Geneticin, and 400 μg/ml Hygromycin B), transferred to 384-well black/clear Costar plates (Costar #3712) (50 μl/well) and incubated at 37° C., in a 5% CO2/95% air humidified incubator for 16 h. The cells were washed with assay buffer at 37° C. using the Biotek ELx 405, washing 3 times, leaving 20 μl buffer in the well. 20 μl Fluo-4 (Fluo-4 stock solution (1 mM) was prepared by dissolving one vial of Fluo-4 (50 μg) in 45 μl of pluronic acid (240 mg/ml in DMSO). This stock solution of Fluo-4 was then diluted 250 times with loading buffer to give a Fluo-4 concentration of 4 μM. The dye solution (used within 2 h and kept away from light) was added to each well using a repeating multichannel pipette; the cells were then incubated at 37° C. for 60 min. Following the incubation, cells were washed in assay buffer at 37° C. using the Biotek ELx 405, washing 3 times, leaving 40 μl in each well and incubated for 10 min at 37° C. before use. A combined agonist/antagonist protocol was used. Compound (antagonist) was added to the cell plate using the FLIPR. Basal fluorescence was recorded every second for 10 seconds prior to compound addition (10 μl) and fluorescence recorded every second for 1 minute then every 6 seconds for a further 1 minute. Agonist (MCP-1) was then added using the FLIPR and fluorescence recorded as described above.
The positive control (agonist) was human recombinant MCP-1 which was stored as a stock concentration of 10 μM in distilled water and stored at −20° C. (maximal response: 30 nM; EC50 dose: 3-5 nM). The reference compound (antagonist) was RS102895 which was used as a 10 mM DMSO solution and stored at −20° C.
FLIPR responses were measured as peak minus basal fluorescence intensity and were expressed as a percentage of EC50 MCP-1 challenge. Curve-fitting and parameter estimation were carried out using GraphPad Prism 4.0 (GraphPad Software Inc., San Diego, Calif.).

Sequence of human CCR2 (P41597 whole entry): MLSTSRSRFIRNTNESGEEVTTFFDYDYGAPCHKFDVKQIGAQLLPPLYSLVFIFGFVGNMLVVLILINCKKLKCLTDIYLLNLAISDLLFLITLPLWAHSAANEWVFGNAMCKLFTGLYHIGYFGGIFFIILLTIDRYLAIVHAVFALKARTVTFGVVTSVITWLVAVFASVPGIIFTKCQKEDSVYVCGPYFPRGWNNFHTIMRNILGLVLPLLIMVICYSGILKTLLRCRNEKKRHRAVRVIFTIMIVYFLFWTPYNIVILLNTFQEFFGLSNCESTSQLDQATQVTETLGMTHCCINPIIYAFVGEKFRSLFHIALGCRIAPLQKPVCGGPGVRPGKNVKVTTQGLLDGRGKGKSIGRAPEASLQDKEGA

Ki [nM] | SMILES
100 to 1000 | COCCNC(=O)c1cnn2c(O)c(Cc3ccc(C)cc3)c(C)nc12 [Example 102, 7-Hydroxy-N-(2-methoxyethyl)-5-methyl-6-[(4-methylphenyl)methyl]pyrazolo[1,5-a]pyrimidine-3-carboxamide]
< 10 | CC(C)OC(=O)c1nc2ccnn2c(O)c1Cc1ccc(Cl)c(F)c1 [Example 88, Propan-2-yl6-[(4-chloro-3-fluorophenyl)methyl]-7-hydroxypyrazolo[1,5-a]pyrimidine-5-carboxylate]
100 to 1000 | CSCCNC(=O)c1cnn2c(O)c(Cc3ccc(Cl)cc3)c(C)nc12 [Example 108, 6-[(4-Chlorophenyl)methyl]-7-hydroxy-5-methyl-N-[2-(methylsulfanyl)ethyl] pyrazolo[1,5-a]pyrimidine-3-carboxamide]
10 to 100 | CCc1nc2c(C(=O)NCCOC)cnn2c(O)c1Cc1ccc(Cl)cc1 [Example 117, 6-[(4-Chlorophenyl)methyl]-5-ethyl-7-hydroxy-N-(2-methoxyethyl)pyrazolo-[1,5-a]pyrimidine-3-carboxamide]
10 to 100 | CC(C)OC(=O)c1nc2ccnn2c(O)c1Cc1cccc(C(F)(F)F)c1 [Example 86, Propan-2-yl7-hydroxy-6-{[3-(trifluoromethyl)phenyl]methyl}pyrazolo[1,5-a]pyrimidine-5-carboxylate]
< 10 | Oc1c(Cc2ccc(F)c(Cl)c2)c(C2CC2)nc2ccnn12 [Example 28, 6-[(3-Chloro-4-fluorophenyl)methyl]-5-cyclopropylpyrazolo[1,5-a]pyrimidin-7-ol]
< 10 | Oc1c(Cc2ccc(F)c(C(F)(F)F)c2)c(C2CC2)nc2ccnn12 [Example 31, 5-Cyclopropyl-6-{[4-fluoro-3-(trifluoro-methyl)phenyl]methyl}pyrazolo[1,5-a]-pyrimidin-7-ol]
< 10 | CC(C)c1nc2ccnn2c(O)c1Oc1ccc(Cl)c(Cl)c1 [Example 68, 6-(3,4-diChlorophenoxy)-5-(propan-2-yl)-pyrazolo[1,5-a]pyrimidin-7-ol]
< 10 | Oc1c(Cc2cc(F)cc(F)c2)c(C2CC2)nc2ccnn12 [Example 25, 5-Cyclopropyl-6-[(3,5-difluorophenyl)-methyl]pyrazolo[1,5-a]pyrimidin-7-ol]
< 10 | Oc1c(Cc2ccc(Cl)c(Cl)c2)c(C2CC2)nc2ccnn12 [Example 30, 5-Cyclopropyl-6-[(3,4-dichlorophenyl)-methyl]pyrazolo[1,5-a]pyrimidin-7-ol]
< 10 | Oc1c(Cc2ccc(F)c(Cl)c2)c(C2CCC2)nc2ccnn12 [Example 46, 6-[(3-Chloro-4-fluorophenyl)methyl]-5-cyclobutylpyrazolo[1,5-a]pyrimidin-7-ol]
10 to 100 | CCC(=O)c1nc2ccnn2c(O)c1Cc1ccc(Cl)c(Cl)c1 [Example 97, 1-{6-[(3,4-Dichlorophenyl)methyl]-7-hydroxypyrazolo[1,5-a]pyrimidin-5-yl}propan-1-one]
100 to 1000 | CC(C)(O)c1nc2ccnn2c(O)c1Cc1cccc(F)c1 [Example 93, 6-[(3-Fluorophenyl)methyl]-5-(2-hydroxypropan-2-yl)pyrazolo[1,5-a]pyrimidin-7-ol]
< 10 | CC(C)c1nc2ccnn2c(O)c1Cc1cc(F)c(F)c(F)c1 [Example 36, 5-(Propan-2-yl)-6-[(3,4,5-trifluorophenyl)-methyl]pyrazolo[1,5-a]pyrimidin-7-ol]
100 to 1000 | Cc1nc2c(C(=O)NCCOc3ccccc3)cnn2c(O)c1Cc1ccccc1 [Example 103, 6-Benzyl-7-hydroxy-5-methyl-N-(2-phenoxyethyl)pyrazolo[1,5-a]pyrimidine-3-carboxamide]
< 10 | CCc1nc2ccnn2c(O)c1Cc1cc(F)c(F)c(F)c1 [Example 13, 5-Ethyl-6-[(3,4,5-trifluorophenyl)-methyl]pyrazolo[1,5-a]pyrimidin-7-ol]

Ki [nM] | SMILES
100 to 1000 | Cc1nc2ccnn2c(O)c1Cc1cccc(F)c1F [Example 7, 6-[(2,3-Difluorophenyl)methyl]-5-methyl-pyrazolo[1,5-a]pyrimidine-7-ol]
< 10 | CC(C)c1nc2ccnn2c(O)c1Cc1ccc(F)c(F)c1 [Example 35, 6-[(3,4-Difluorophenyl)methyl]-5-(propan-2-yl)pyrazolo[1,5-a]pyrimidin-7-ol]
10 to 100 | Cc1nc2ccnn2c(O)c1Oc1cccc(F)c1 [Example 5, 6-(3-Fluorophenoxy)-5-methylpyrazolo[1,5-a]pyrimidin-7-ol]
< 10 | CC(C)c1nc2ccnn2c(O)c1Cc1ccc(Cl)c(Cl)c1 [Example 41, 6-[(3,4-Dichlorophenyl)methyl]-5-(propan-2-yl)pyrazolo[1,5-a]pyrimidin-7-ol]
100 to 1000 | Cc1nc2c(C(=O)NC[C@H]3CCCO3)cnn2c(O)c1Cc1ccc(Cl)cc1 [Example 101, 6-[(4-Chlorophenyl)methyl]-7-hydroxy-5-methyl-N-[(2R)-oxolan-2-ylmethyl]-pyrazolo[1,5-a]pyrimidine-3-carboxamide]
100 to 1000 | O=C(O)c1nc2ccnn2c(O)c1Cc1cccc(Cl)c1 [Example 85, 6-[(3-Chlorophenyl)methyl]-7-hydroxypyrazolo[1,5-a]pyrimidine-5-carboxylic acid]
< 10 | CC(C)c1nc2ccnn2c(O)c1Cc1cc(Cl)cc(Cl)c1 [Example 42, 6-[(3,5-Dichlorophenyl)methyl]-5-(propan-2-yl)pyrazolo[1,5-a]pyrimidin-7-ol]
< 10 | Oc1c(Cc2ccccc2)c(C2CC2)nc2ccnn12 [Example 18, 6-Benzyl-5-cyclopropylpyrazolo[1,5-a]-pyrimidin-7-ol]
< 10 | COC(=O)c1nc2ccnn2c(O)c1Oc1ccc(Cl)c(Cl)c1 [Example 89, Methyl 6-(3,4-dichlorophenoxy)-7-hydroxypyrazolo[1,5-a]pyrimidine-5-carboxylate]
100 to 1000 | Cc1nc2c(C(=O)NC[C@@H]3CCCO3)cnn2c(O)c1Cc1ccc(Cl)cc1 (stereo in doubt) [Example 110, 6-[(4-Chlorophenyl)methyl]-7-hydroxy-5-methyl-N-(oxolan-2-ylmethyl)pyrazolo-[1,5-a] pyrimidine-3-carboxamide]
100 to 1000 | CCOC(=O)c1nc2ccnn2c(O)c1Cc1cccc(F)c1 [Example 73, Ethyl 6-[(3-fluorophenyl)methyl]-7-hydroxypyrazolo[1,5-a]pyrimidine-5-carboxylate]
< 10 | Oc1c(Cc2cc(F)c(F)c(F)c2)c(C2CC2)nc2ccnn12 [Example 26, 5-Cyclopropyl-6-[(3,4,5-trifluorophenyl)-methyl]pyrazolo[1,5-a]pyrimidin-7-ol]
100 to 1000 | Oc1c(Cc2cccc(F)c2)c(-c2cnccn2)nc2cncn12 [Example 3, 3-[(3-Fluorophenyl)methyl]-2-(pyrazin-2-yl)imidazo[1,5-a]pyrimidin-4-ol]
< 10 | CC(C)c1nc2ccnn2c(O)c1Oc1ccc(Br)cc1 [Example 66, 6-(4-Bromophenoxy)-5-(propan-2-yl)-pyrazolo[1,5-a]pyrimidin-7-ol]
100 to 1000 | CCN(c1cccc(F)c1)c1c(C)nc2ccnn2c1O [Example 79, 6-[Ethyl(3-fluorophenyl)amino]-5-methylpyrazolo[1,5-a]pyrimidin-7-ol]

Same assay, conditions: at 2 μM

SMILES | inhibition of CCR2 calcium response
O=C1Nc2ccccc2C2(CCN(CCc3ccc(C(F)(F)F)cc3)CC2)O1 [RS102895, reference compound] | full inhibition

Same assay, conditions: reference antagonist; read-out: fKi

SMILES | Ki [nM]
O=C1Nc2ccccc2C2(CCN(CCc3ccc(C(F)(F)F)cc3)CC2)O1 [RS102895, reference compound] | 84
